Test systems include RPMI-8226; NCI-H522; RXF 393; SNB-19; MDA-MB-231; OVCAR-3; MDA-MB-435; SF-268; NCI-H460; A549; PC-3; NCI-H226; K562; OVCAR-4; EKVX; 786-0; HL-60; CCRF-CEM; SNB-75.
Holding throughout (assay): NCI-60 cell line screen, 48 h

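Tested at 5 concentrations; 48 h exposure; 96-well plates; endpoints linearly interpolated, else capped at highest concentration. GI50 = concentration required for 50% inhibition of growth.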 Active and inactive are the calls of the source. No stated cut-off is given here; in the data, active = GI50 up to about 1.1 µM and inactive = higher.

For the compound `C=CC[C@@]12CCC(=O)C=C1CCCC2=O`, the GI50 in the assay on RPMI-8226, with NCI-H522, in the assay with RXF 393, in the assay with SNB-19, with MDA-MB-231 and in the assay on OVCAR-3 was > 100 µM (inactive) in each case. Besides, the GI50 in the assay with MDA-MB-435, in the assay on SF-268, with NCI-H460, in the assay with A549, in the assay on PC-3 and with NCI-H226 was > 100 µM (inactive) in each case. For the same compound, the GI50 with K562, with OVCAR-4, with EKVX, with 786-0 and in the assay on HL-60 was > 100 µM (inactive) in each case.

Take `CC(C)c1c(O[Si](C(C)C)(C(C)C)C(C)C)c2c3c(ccc4c3c1OC4(C)C)C(C)CC2` (centres undefined): the GI50 with RPMI-8226, in the assay with NCI-H522, with RXF 393, in the assay on SNB-19, in the assay with MDA-MB-231 and in the assay with OVCAR-3 was > 100 µM (inactive) in each case. For the same compound, the GI50 in the assay on CCRF-CEM is > 100 µM (inactive); in the assay with MDA-MB-435, > 100 µM (inactive); with SF-268 it was > 100 µM (inactive); with NCI-H460 it was > 100 µM (inactive); in the assay with A549, > 100 µM (inactive); in the assay on SNB-75, 21.3 µM (inactive). Moreover, the GI50 in the assay with PC-3, in the assay with NCI-H226, in the assay on K562, with OVCAR-4, with EKVX and with 786-0 was > 100 µM (inactive) in each case. Moreover, the GI50 in the assay with HL-60 is > 100 µM (inactive).

Consider `CC1CC(N)=C(C#N)C1(C#N)C#N` (centres undefined), for which the GI50 in the assay with RPMI-8226, in the assay with NCI-H522, in the assay on RXF 393, with SNB-19, with MDA-MB-231 and in the assay on MDA-MB-435 was > 100 µM (inactive) each time. Besides, the GI50 in the assay with SF-268 is > 100 µM (inactive); with A549, > 100 µM (inactive); in the assay with SNB-75 it was 74.3 µM (inactive); in the assay with PC-3, > 100 µM (inactive); with NCI-H226, > 100 µM (inactive); with K562, > 100 µM (inactive). For the same compound, the GI50 with EKVX, in the assay with 786-0 and in the assay with HL-60 was > 100 µM (inactive) throughout.

As for `O=C(O)C1C2C=CC(O2)C1C(=O)NCc1ccncc1` (centres undefined), the GI50 in the assay with RPMI-8226 was > 100 µM (inactive); in the assay on NCI-H522, > 100 µM (inactive); in the assay with RXF 393, > 100 µM (inactive); in the assay with SNB-19, > 100 µM (inactive); in the assay on MDA-MB-231, > 100 µM (inactive); with OVCAR-3 it was 33.7 µM (inactive). The GI50 in the assay on CCRF-CEM, in the assay on MDA-MB-435, in the assay with SF-268, with NCI-H460, with A549 and in the assay with SNB-75 was > 100 µM (inactive) each time. Further, the GI50 in the assay with PC-3, with NCI-H226, with K562, with OVCAR-4, with EKVX and in the assay on 786-0 was > 100 µM (inactive) throughout. Further, the GI50 in the assay on HL-60 was > 100 µM (inactive).

For the compound `COc1cccc(N(CN2C(=O)CCC2OC)C(C)=O)c1` (centres undefined), the GI50 in the assay with RPMI-8226, in the assay with RXF 393, in the assay on SNB-19, in the assay with MDA-MB-231, with OVCAR-3 and with CCRF-CEM was > 100 µM (inactive) each time. In addition, the GI50 with MDA-MB-435, in the assay on SF-268, in the assay on NCI-H460, with A549, with SNB-75 and in the assay on PC-3 was > 100 µM (inactive) each time. Further, the GI50 in the assay on NCI-H226 was > 100 µM (inactive); in the assay on K562 it was > 100 µM (inactive); in the assay on OVCAR-4 it was > 100 µM (inactive); in the assay on 786-0, > 100 µM (inactive); with HL-60, 22.6 µM (inactive).

For the compound `CCOC(=O)Nc1ccc2c(c1)c(CCCCCCc1nc3ccccc3c3ccc(NC(=O)OCC)cc13)nc1ccccc12`, the GI50 with RPMI-8226 is > 100 µM (inactive); in the assay on NCI-H522 it was 22.9 µM (inactive); in the assay on RXF 393 it was 47.2 µM (inactive); in the assay on SNB-19 it was 30.1 µM (inactive); in the assay on MDA-MB-231 it was 30.5 µM (inactive); in the assay with OVCAR-3 it was 21.3 µM (inactive). Besides, the GI50 is > 100 µM (inactive) with CCRF-CEM; 59.7 µM (inactive) in the assay with MDA-MB-435; 26.5 µM (inactive) in the assay on SF-268; 61.9 µM (inactive) in the assay on NCI-H460; 70 µM (inactive) in the assay with A549; 16.3 µM (inactive) in the assay with SNB-75. The GI50 was > 100 µM (inactive) with PC-3; 23.9 µM (inactive) in the assay on NCI-H226; 80 µM (inactive) with K562; 29.3 µM (inactive) with OVCAR-4; < 0.01 µM (active) in the assay on EKVX; 18.4 µM (inactive) with 786-0. For the same compound, the GI50 with HL-60 is > 100 µM (inactive).

As for `Cn1c(N/N=C/c2ccccc2)nc(-c2ccc([N+](=O)[O-])cc2)c(C#N)c1=O`, the GI50 was 17.7 µM (inactive) in the assay with RPMI-8226; 23.1 µM (inactive) with NCI-H522; 53.8 µM (inactive) with RXF 393; > 100 µM (inactive) in the assay with SNB-19; 19.5 µM (inactive) in the assay on MDA-MB-231; 20.5 µM (inactive) in the assay on OVCAR-3. The GI50 in the assay on CCRF-CEM was 26 µM (inactive); in the assay on MDA-MB-435 it was > 100 µM (inactive); with SF-268, 39.7 µM (inactive); with NCI-H460, 32.1 µM (inactive); in the assay on A549, 28.8 µM (inactive); with SNB-75, 88.5 µM (inactive). For the same compound, the GI50 in the assay with PC-3 is 59.6 µM (inactive); with K562, 1.61 µM (inactive); with OVCAR-4, 29 µM (inactive); in the assay with EKVX, 66.7 µM (inactive); in the assay on 786-0 it was 91.8 µM (inactive); in the assay on HL-60, 11 µM (inactive).

As to `C=C(CC(=O)Nc1ccc(C(=O)OC)o1)C(=O)OC`, the GI50 in the assay with NCI-H522 is 19.9 µM (inactive); in the assay with RXF 393, 18.5 µM (inactive); with SNB-19, 25.3 µM (inactive); in the assay on MDA-MB-231, 27.7 µM (inactive); in the assay with CCRF-CEM it was > 10 µM (inactive); with MDA-MB-435, 17.8 µM (inactive). The GI50 with SF-268 is 36.6 µM (inactive); in the assay on NCI-H460 it was 29.9 µM (inactive); with A549, 18.2 µM (inactive); in the assay on SNB-75, 32.4 µM (inactive); with PC-3, 23.6 µM (inactive); in the assay on NCI-H226, 26.5 µM (inactive). Also, the GI50 with OVCAR-4 was 30.7 µM (inactive); in the assay with EKVX it was 21.8 µM (inactive); with 786-0 it was 19.7 µM (inactive).

For the compound `Cc1ccc2[nH]c(=N/c3ccccc3C)/c(=N\c3ccccc3C)[nH]c2c1`, the GI50 in the assay on RPMI-8226 is > 100 µM (inactive); with NCI-H522 it was 10.2 µM (inactive); with RXF 393, 17.3 µM (inactive); in the assay with SNB-19, 46.8 µM (inactive); in the assay on MDA-MB-231, 17.1 µM (inactive); in the assay on OVCAR-3, 22.4 µM (inactive). Also, the GI50 is > 46.8 µM (inactive) in the assay on CCRF-CEM; 32.2 µM (inactive) with MDA-MB-435; 48.1 µM (inactive) in the assay on SF-268; 17.3 µM (inactive) in the assay on NCI-H460; 20.5 µM (inactive) in the assay on A549; 34.7 µM (inactive) in the assay with SNB-75. In addition, the GI50 in the assay with PC-3 is 31.3 µM (inactive); in the assay on NCI-H226, 29.2 µM (inactive); in the assay on K562 it was 23.8 µM (inactive); with OVCAR-4, 47.2 µM (inactive); with EKVX, 24.5 µM (inactive); with 786-0 it was 30 µM (inactive). Moreover, the GI50 with HL-60 was 46.2 µM (inactive).

With `COc1ccc(-c2c(C(C)=O)c(C)n(C3OC(COC(C)=O)C(OC(C)=O)C(OC(C)=O)C3OC(C)=O)c(=S)c2C#N)cc1` (centres undefined), the GI50 is > 100 µM (inactive) with NCI-H522; 80.7 µM (inactive) with RXF 393; 89.9 µM (inactive) in the assay on SNB-19; 29.1 µM (inactive) in the assay on MDA-MB-231; > 100 µM (inactive) with OVCAR-3; 42.3 µM (inactive) in the assay on CCRF-CEM. The GI50 was > 100 µM (inactive) in the assay on MDA-MB-435; > 100 µM (inactive) in the assay with SF-268; 81.5 µM (inactive) in the assay on NCI-H460; 66.2 µM (inactive) in the assay with A549; 75.5 µM (inactive) in the assay on SNB-75; 45.2 µM (inactive) in the assay on PC-3. Moreover, the GI50 in the assay on NCI-H226 is > 100 µM (inactive); in the assay on K562 it was 68.5 µM (inactive); with OVCAR-4, 73.1 µM (inactive); in the assay with 786-0, 62.1 µM (inactive); in the assay on HL-60 it was 63.5 µM (inactive).

On to `Cc1ncc([N+](=O)[O-])n1CCNC(=O)CCCn1cnc([N+](=O)[O-])n1`, for which the GI50 in the assay on RPMI-8226, in the assay with NCI-H522, with RXF 393, in the assay on SNB-19, in the assay on MDA-MB-231 and in the assay with OVCAR-3 was > 100 µM (inactive) throughout. Also, the GI50 is > 100 µM (inactive) in the assay on CCRF-CEM; > 100 µM (inactive) in the assay on MDA-MB-435; > 100 µM (inactive) in the assay with SF-268; > 100 µM (inactive) with NCI-H460; > 78.3 µM (inactive) in the assay on A549; 98.6 µM (inactive) in the assay on SNB-75. Besides, the GI50 in the assay on PC-3 was > 100 µM (inactive); with NCI-H226, > 100 µM (inactive); in the assay on K562, > 100 µM (inactive); in the assay with OVCAR-4 it was > 100 µM (inactive); in the assay on EKVX, > 31.6 µM (inactive); with 786-0, > 100 µM (inactive). In addition, the GI50 in the assay with HL-60 was > 100 µM (inactive).

The values are drawn from ChEMBL document CHEMBL1201862, “PubChem BioAssay data set” (2004).
